The results in this text go back to patent US20060100245A1, “Substituted biphenyl-4-carboxylic acid arylamide analogues” (Neurogen Corporation, priority 2002, published 2006).

pKi: −log10 of the molar value.

T1 sequence (Q8NER1 whole entry): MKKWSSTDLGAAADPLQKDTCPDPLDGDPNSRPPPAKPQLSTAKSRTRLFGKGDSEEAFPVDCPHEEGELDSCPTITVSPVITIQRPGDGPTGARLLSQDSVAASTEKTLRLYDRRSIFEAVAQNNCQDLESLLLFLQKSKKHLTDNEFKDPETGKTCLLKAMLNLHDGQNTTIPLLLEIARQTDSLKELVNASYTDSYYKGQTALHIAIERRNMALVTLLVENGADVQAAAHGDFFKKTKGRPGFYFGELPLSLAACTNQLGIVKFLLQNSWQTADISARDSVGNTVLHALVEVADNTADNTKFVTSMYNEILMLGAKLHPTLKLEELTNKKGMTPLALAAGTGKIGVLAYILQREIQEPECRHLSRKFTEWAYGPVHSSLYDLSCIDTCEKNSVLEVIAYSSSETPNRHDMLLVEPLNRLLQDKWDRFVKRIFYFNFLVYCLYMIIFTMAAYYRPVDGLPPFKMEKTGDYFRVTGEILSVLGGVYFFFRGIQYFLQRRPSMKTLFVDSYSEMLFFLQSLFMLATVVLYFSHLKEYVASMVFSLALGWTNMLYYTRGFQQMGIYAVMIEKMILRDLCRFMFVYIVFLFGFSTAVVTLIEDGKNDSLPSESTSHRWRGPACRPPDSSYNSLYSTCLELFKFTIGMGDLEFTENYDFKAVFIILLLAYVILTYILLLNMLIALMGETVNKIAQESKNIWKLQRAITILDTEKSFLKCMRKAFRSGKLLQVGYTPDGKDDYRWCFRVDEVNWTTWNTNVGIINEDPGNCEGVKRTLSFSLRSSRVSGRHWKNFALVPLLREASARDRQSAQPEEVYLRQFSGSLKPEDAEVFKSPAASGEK

The assay has as its target T1, human capsaicin receptor (VR1) (Homo sapiens, UniProt Q8NER1).
T1 construct: transfected with the pBK-CMV expression construct encoding the full length human capsaicin receptor; expressed in transfected cells
Briefly: Capsaicin receptor binding assay ([3H]RTX competition). Particulars: read-out: Ki. In outline: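 Membranes from HEK293 cells stably expressing full-length human VR1; competition against 60 pM [3H]RTX, 60 min at 37 °C in HEPES/sucrose buffer pH 7.4 with 0.25 mg/ml BSA. Non-specific binding defined with 1 μM unlabelled RTX; alpha1-acid glycoprotein added after termination on ice.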
As to `Cc1ccc(NC(=O)c2ccc(-c3cccc(OC(F)(F)F)c3)nc2)cc1C` [Compound 242, N-(3,4-Dimethyl-phenyl)-6-(3-trifluoromethoxy-phenyl)-nicotinamide], the pKi (in general, −log10 of the Ki, conventionally taken in molar units) is over 6.00.

Consider `Cc1cccc(-c2ccc(C(=O)Nc3ccc(C)c(C)c3)cn2)c1` [Compound 247, N-(3,4-Dimethyl-phenyl)-6-m-tolyl-nicotinamide], for which the pKi was over 6.00.

As to `Cc1ccc(NC(=O)c2ccc(-c3ccccc3C)nc2)cc1C` [Compound 248, N-(3,4-Dimethyl-phenyl)-6-o-tolyl-nicotinamide], the pKi was over 6.00.

`Cc1ccc(NC(=O)c2ccc(-c3ccccc3)nc2)cc1C` [Compound 249, N-(3,4-Dimethyl-phenyl)-6-phenyl-nicotinamide]: the pKi was over 6.00.

As to `Cc1ccc(NC(=O)c2ccc(-c3cccc(F)c3)nc2)cc1F` [Compound 266, N-(3-Fluoro-4-methyl-phenyl)-6-(3-fluoro-phenyl)-nicotinamide], the pKi is over 6.00.

Consider `Cc1ccc(NC(=O)c2ccc(-c3cccc(C(C)C)c3)nc2)cc1F` [Compound 267, N-(3-Fluoro-4-methyl-phenyl)-6-(3-isopropyl-phenyl)-nicotinamide], for which the pKi was over 6.00.

Take `COc1cccc(-c2ccc(C(=O)Nc3ccc(C)c(F)c3)cn2)c1` [Compound 268, N-(3-Fluoro-4-methyl-phenyl)-6-(3-methoxy-phenyl)-nicotinamide]: the pKi was over 6.00.

On to `COc1cccc(NC(=O)c2ccc(-c3cccc(OC(F)(F)F)c3)nc2)c1` [Compound 278], for which the pKi was over 6.00.

As to `COc1cccc(NC(=O)c2ccc(-c3cccc(C)c3)nc2)c1` [Compound 280, N-(3-Methoxy-phenyl)-6-m-tolyl-nicotinamide], the pKi is over 6.00.

Turning to `COc1cccc(NC(=O)c2ccc(-c3ccccc3)nc2)c1` [Compound 282, N-(3-Methoxy-phenyl)-6-phenyl-nicotinamide], the pKi was over 6.00.

Regarding `CC(C)(C)c1cccc(NC(=O)c2ccc(-c3ccccc3F)nc2)c1` [Compound 288, N-(3-tert-Butyl-phenyl)-6-(2-fluoro-phenyl)-nicotinamide], the pKi is over 6.00.

With `CC(C)(C)c1cccc(NC(=O)c2ccc(-c3cccc(F)c3)nc2)c1` [Compound 296, N-(3-tert-Butyl-phenyl)-6-(3-fluoro-phenyl)-nicotinamide], the pKi was over 6.00.

For `Cc1cc(C)cc(-c2ccc(C(=O)Nc3ccc(Br)c(Cl)c3)cn2)c1` [Compound 316, N-(4-Bromo-3-chloro-phenyl)-6-(3,5-dimethyl-phenyl)-nicotinamide], the pKi is over 6.00.

For the molecule `CCOc1cccc(-c2ccc(C(=O)Nc3ccc(Br)c(Cl)c3)cn2)c1` [Compound 317, N-(4-Bromo-3-chloro-phenyl)-6-(3-ethoxy-phenyl)-nicotinamide], the pKi was over 6.00.

In the case of `O=C(Nc1ccc(Br)c(Cl)c1)c1ccc(-c2cccc(F)c2)nc1` [Compound 318, N-(4-Bromo-3-chloro-phenyl)-6-(3-fluoro-phenyl)-nicotinamide], the pKi is over 6.00.

In the case of `O=C(Nc1ccc(Br)c(Cl)c1)c1ccc(-c2ccc(F)cc2)nc1` [Compound 320, N-(4-Bromo-3-chloro-phenyl)-6-(4-fluoro-phenyl)-nicotinamide], the pKi was over 6.00.

For the molecule `CC(C)c1ccc(-c2ccc(C(=O)Nc3ccc(Br)c(Cl)c3)cn2)cc1` [Compound 321, N-(4-Bromo-3-chloro-phenyl)-6-(4-isopropyl-phenyl)-nicotinamide], the pKi is over 6.00.

As for `CCCCc1ccc(NC(=O)c2ccc(-c3ncccc3Cl)cc2)cc1` [Compound 332, N-(4-Butyl-phenyl)-4-(3-chloro-pyridin-2-yl)-benzamide], the pKi was over 6.00.

With `CCCCc1ccc(NC(=O)c2ccc(-c3ccccc3C)nc2)cc1` [Compound 343, N-(4-Butyl-phenyl)-6-o-tolyl-nicotinamide], the pKi was over 6.00.

On to `O=C(Nc1ccc(Cl)cc1)c1ccc(-c2ccccc2F)nc1` [Compound 348, N-(4-Chloro-phenyl)-6-(2-fluoro-phenyl)-nicotinamide], for which the pKi is over 6.00.

Turning to `O=C(Nc1ccc(C2CCCC2)cc1)c1ccc(-c2ncccc2F)cc1` [Compound 363, N-(4-Cyclopenyl-phenyl)-4-(3-fluoro-pyridin-2-yl)-benzamide], the pKi was over 6.00.

Regarding `CCc1ccc(NC(=O)c2ccc(-c3ccccc3F)nc2)cc1` [Compound 365, N-(4-Ethyl-phenyl)-6-(2-fluoro-phenyl)-nicotinamide], the pKi was over 6.00.

In the case of `CCc1ccc(NC(=O)c2ccc(-c3ccccc3C)nc2)cc1` [Compound 374, N-(4-Ethyl-phenyl)-6-o-tolyl-nicotinamide], the pKi was over 6.00.

For `O=C(Nc1ccc(F)cc1)c1ccc(-c2ncccc2F)cc1` [Compound 375, N-(4-Fluoro-phenyl)-4-(3-fluoro-pyridin-2-yl)-benzamide], the pKi is over 6.00.

For the molecule `COc1ccccc1-c1ccc(C(=O)Nc2ccc(C(C)C)cc2)cn1` [Compound 378, N-(4-Isopropyl-phenyl)-6-(2-methoxy-phenyl)-nicotinamide], the pKi is over 6.00.

As for `Cc1cccc(-c2ccc(C(=O)Nc3ccc(C(C)C)cc3)cn2)c1` [Compound 383, N-(4-Isopropyl-phenyl)-6-m-tolyl-nicotinamide], the pKi was over 6.00.

Take `Cc1ccccc1-c1ccc(C(=O)Nc2ccc(C(C)C)cc2)cn1` [Compound 384, N-(4-Isopropyl-phenyl)-6-o-tolyl-nicotinamide]: the pKi is over 6.00.

Consider `CC(C)c1ccc(NC(=O)c2ccc(-c3ccccc3)nc2)cc1` [Compound 385, N-(4-Isopropyl-phenyl)-6-phenyl-nicotinamide], for which the pKi was over 6.00.

As to `CCCc1ccc(NC(=O)c2ccc(-c3ccccc3C)nc2)cc1` [Compound 389, N-(4-Propyl-phenyl)-6-o-tolyl-nicotinamide], the pKi is over 6.00.

Regarding `CCC(C)c1ccc(NC(=O)c2ccc(-c3ncccc3F)cc2)cc1` (stereo not shown) [Compound 390, N-(4-sec-Butyl-phenyl)-4-(3-fluoro-pyridin-2-yl)-benzamide], the pKi is over 6.00.

Take `COc1ccc(F)cc1-c1ccc(C(=O)Nc2ccc(C(C)(C)C)cc2Cl)cn1` [Compound 391, N-(4-tert-Butyl-2-chloro-phenyl)-6-(5-fluoro-2-methoxy-phenyl)-nicotinamide]: the pKi was over 6.00.

As for `CC(C)(C)[C@H]1CC[C@H](NC(=O)c2ccc(-c3ncccc3Cl)cc2)CC1` [Compound 392, N-(4-tert-Butyl-cyclohexyl)-4-(3-chloro-pyridin-2-yl)-benzamide (trans)], the pKi is over 6.00.

For the molecule `CC(C)(C)[C@H]1CC[C@@H](NC(=O)c2ccc(-c3ncccc3Cl)cc2)CC1` [Compound 393, N-(4-tert-Butyl-cyclohexyl)-4-(3-chloro-pyridin-2-yl)-benzamide (cis)], the pKi is over 6.00.

With `CC(C)(C)c1ccc(NC(=O)c2ccc(-c3ncccc3C(F)(F)F)cc2O)cc1` [Compound 394, N-(4-tert-Butyl-phenyl)-2-hydroxy-4-(3-trifluoromethyl-pyridin-2-yl)-benzamide], the pKi was over 6.00.

Regarding `CC(C)(C)c1ccc(NC(=O)c2ccc(-c3ncccc3C(F)(F)F)cc2[N+](=O)[O-])cc1` [Compound 395, N-(4-tert-Butyl-phenyl)-2-nitro-4-(3-trifluoromethyl-pyridin-2-yl)-benzamide], the pKi is over 6.00.

In the case of `CC(C)(C)c1ccc(NC(=O)c2ccc(-c3ccc4[nH]ccc4c3)cc2)cc1` [Compound 396, N-(4-tert-Butyl-phenyl)-4-(1H-indol-5-yl)-benzamide], the pKi was over 6.00.

`CC(C)(C)c1ccc(NC(=O)c2ccc(C3CCCCN3S(C)(=O)=O)cc2)cc1` (stereo not shown) [Compound 397, N-(4-tert-Butyl-phenyl)-4-(1-methanesulfonyl-piperidin-2-yl)-benzamide]: the pKi is over 6.00.

Take `CN1CCCCC1c1ccc(C(=O)Nc2ccc(C(C)(C)C)cc2)cc1` (stereo not shown) [Compound 398, N-(4-tert-Butyl-phenyl)-4-(1-methyl-piperidin-2-yl)-benzamide]: the pKi was over 6.00.

As to `CCCN1CCCCC1c1ccc(C(=O)Nc2ccc(C(C)(C)C)cc2)cc1` (stereo not shown) [Compound 399, N-(4-tert-Butyl-phenyl)-4-(1-propyl-piperidin-2-yl)-benzamide], the pKi is over 6.00.

Turning to `CC(C)(C)c1ccc(NC(=O)c2ccc(-c3ncc(Cl)cc3Cl)cc2)cc1` [Compound 400, N-(4-tert-Butyl-phenyl)-4-(3,5-dichloro-pyridin-2-yl)-benzamide], the negative-log Ki (pKi) was over 6.00.

`CC(C)(C)c1ccc(NC(=O)c2ccc(-c3ncccc3-c3nnco3)cc2)cc1` [Compound 401, N-(4-tert-Butyl-phenyl)-4-(3-[1,3,4]oxadiazol-2-yl-pyridin-2-yl)-benzamide]: the pKi is over 6.00.

In the case of `CC(C)(C)c1ccc(NC(=O)c2ccc(-c3ncc(C(F)(F)F)cc3Cl)cc2)cc1` [Compound 402, N-(4-tert-Butyl-phenyl)-4-(3-chloro-5-trifluoromethyl-pyridin-2-yl)-benzamide], the pKi was over 6.00.

Regarding `CC(C)(C)c1ccc(NC(=O)c2ccc(-c3nccnc3Cl)cc2)cc1` [Compound 403, N-(4-tert-Butyl-phenyl)-4-(3-chloro-pyrazin-2-yl)-benzamide], the pKi was over 6.00.

For `CC(C)(C)c1ccc(NC(=O)c2ccc(-c3ncccc3Cl)cc2)cc1` [Compound 404, N-(4-tert-Butyl-phenyl)-4-(3-chloro-pyridin-2-yl)-benzamide], the pKi is over 6.00.

Regarding `CC(C)(C)c1ccc(NC(=O)c2ccc(-c3ncccc3C#N)cc2)cc1` [Compound 405, N-(4-tert-Butyl-phenyl)-4-(3-cyano-pyridin-2-yl)-benzamide], the pKi was over 6.00.

Turning to `CC(C)(C)c1ccc(NC(=O)c2ccc(-c3ncccc3NC3CCCC3)cc2)cc1` [Compound 406, N-(4-tert-Butyl-phenyl)-4-(3-cyclopentylamino-pyridin-2-yl)-benzamide], the pKi was over 6.00.
